Experimental data: US4866063A, “Diol metabolites of 7-phenyl-1,2,4-triazolo[2,3-c]pyrimidines-5-amines” (priority 1988, dated 1989)
Entries after “also recorded” stand apart in the source; their conditions may differ. Where two headings read alike, the source gives them in different places.

How the values were obtained:
[1] = rat, in vivo
[2] = cited from earlier work
[3] = Cardiotoxicity of compounds I and II in rats
[4] = Metabolism of compound II in the rat; format: in vivo
[5] = Metabolism of compound II in man; format: in vivo
heart or adrenal gland = test: Cardiotoxicity study of compound III in rats (gross and histologic examination, mortality); format: in vivo, female Charles River CD rats; conditions: conclusion of the study
Experimental: (§1) Compound III was administered by gavage at 40 mg/kg, 80 mg/kg, 160 mg/kg and 320 mg/kg to female Charles River CD rats (10/dosage) once daily for three days. One additional group of rats received vehicle for three days to serve as controls. […] Additional groups of rats (3/dosage) were sacrificed two hours after dosing on day 1, blood collected, and samples analyzed to determine plasma concentrations of compound III.

[6] = Plasma concentrations of compound III two hours after dosing on day 1; format: in vivo, female Charles River CD rats; conditions: for concentration at 2 h: rat, plasma, po, gavage, two hours after dosing on day 1
Experimental: as §1

[7] = Water solubility compared with precursor compounds; format: physicochemical; conditions: vs compounds I and II
[8] = Bioavailability compared with precursor compounds; format: in vivo; conditions: vs compounds I and II

SMILES	Myocardial lesions and associated changes [1]	Glomerular filtration rate ([2]; acute, mammals)	Renal blood flow ([2]; acute, mammals)	Glomerular filtration rate ([2]; chronic oral dosing)	Renal blood flow ([2]; chronic oral dosing)	Sodium excretion ([2]; chronic oral dosing)	Cardiotoxicity [3]	Aliphatic hydroxylation (metabolism) [4]	Aliphatic hydroxylation (similar metabolism) [5]	Cardiotoxicity (heart or adrenal gland)	Plasma concentrations relative to those expected at cardiotoxic dosages of compounds I and II ([6]; 40-320 mg/kg)	concentration at 2 h ([6]; 40 mg/kg) [ng/mL]	concentration at 2 h ([6]; 80 mg/kg) [ng/mL]	concentration at 2 h ([6]; 160 mg/kg) [ng/mL]	concentration at 2 h ([6]; 320 mg/kg) [ng/mL]	Water solubility relative to either precursor compound [7]	Bioavailability relative to either precursor compound [8]
CCOCCc1c(-c2ccccc2)nc(N)n2ncnc12 [compound I, 8-(2-ethoxyethyl)-7-phenyl-1,2,4-triazolo[2,3-c]pyrimidine-5-amine]	myocardial lesions and associated changes found in rats	increases	increases	significant increases	significant increases	significant increases	cardiotoxicity seen	–	–	–	–	–	–	–	–	–	–
Nc1nc(-c2ccccc2)c(CCO)c2ncnn12 [compound II, 8-(2-hydroxyethyl)-7-phenyl 1,2,4-triazolo[2,3-c]pyrimidine-5-amine]	myocardial lesions and associated changes found in rats	–	–	–	–	–	cardiotoxicity seen	undergoes aliphatic hydroxylation in the rat	not seen in man	–	–	–	–	–	–	–	–
Nc1nc(-c2ccccc2)c(C(O)CO)c2ncnn12 (stereo not shown) [compound III, 8-(1,2-dihydroxyethyl)-7-phenyl-1,2,4-triazolo[2,3-c]pyrimidine-5-amine]	–	–	–	–	–	–	–	–	–	does not appear to be cardiotoxic; also recorded: no incidence of cardiotoxic side effects in rats	well in excess of the concentrations that one might expect to see at cardiotoxic dosages of compounds I and II	13800	19800	36700	47000	more water soluble	more bioavailable
